Assay results reported in PubChem BioAssay (NCI).
“And” between values parts separate entries of the source, which are not always exact repeats. Equal values may be shown once.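 Test compounds were applied to cells in 96-well plates for 48 hours at 5 doses. At the GI50, growth is halved. TGI denotes the concentration required for complete inhibition of growth.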

Experiments:
Assay in all cases: NCI-60 cell line screen, 48 h
OVCAR-4 ovarian = test system: OVCAR-4 ovarian
OVCAR-5 ovarian = test system: OVCAR-5 ovarian
MDA-MB-435 = test system: MDA-MB-435
SNB-19 CNS = test system: SNB-19 CNS
SN12C renal = test system: SN12C renal
SW-620 colon = test system: SW-620 colon
TK-10 renal = test system: TK-10 renal
MDA-MB-231 breast = test system: MDA-MB-231 breast
MOLT-4 leukemia = test system: MOLT-4 leukemia
UACC-257 melanoma = test system: UACC-257 melanoma
HT29 colon = test system: HT29 colon
SK-MEL-5 melanoma = test system: SK-MEL-5 melanoma
SK-MEL-28 melanoma = test system: SK-MEL-28 melanoma
M14 melanoma = test system: M14 melanoma
SR leukemia = test system: SR leukemia
NCI-H460 lung = test system: NCI-H460 lung
T-47D breast = test system: T-47D breast
SF-295 CNS = test system: SF-295 CNS
SF-268 CNS = test system: SF-268 CNS
NCI-H226 lung = test system: NCI-H226 lung
K-562 leukemia = test system: K-562 leukemia
CAKI-1 renal = test system: CAKI-1 renal
LOX IMVI melanoma = test system: LOX IMVI melanoma
SK-MEL-2 melanoma = test system: SK-MEL-2 melanoma
HOP-92 NSCLC = test system: HOP-92 NSCLC
NCI/ADR-RES ovarian = test system: NCI/ADR-RES ovarian
SK-OV-3 ovarian = test system: SK-OV-3 ovarian
DU-145 prostate = test system: DU-145 prostate
SNB-75 CNS = test system: SNB-75 CNS
SF-539 CNS = test system: SF-539 CNS
UO-31 renal = test system: UO-31 renal
MALME-3M melanoma = test system: MALME-3M melanoma
RXF 393 renal = test system: RXF 393 renal
OVCAR-8 ovarian = test system: OVCAR-8 ovarian
CCRF-CEM leukemia = test system: CCRF-CEM leukemia
MCF7 breast = test system: MCF7 breast
UACC-62 melanoma = test system: UACC-62 melanoma
HCT-15 colon = test system: HCT-15 colon
PC-3 prostate = test system: PC-3 prostate
HL-60(TB) leukemia = test system: HL-60(TB) leukemia
HCC-2998 colon = test system: HCC-2998 colon
KM12 colon = test system: KM12 colon
NCI-H23 lung = test system: NCI-H23 lung
COLO 205 colon = test system: COLO 205 colon
U251 CNS = test system: U251 CNS
ACHN renal = test system: ACHN renal
A549 NSCLC = test system: A549 NSCLC
HCT-116 colon = test system: HCT-116 colon
EKVX NSCLC = test system: EKVX NSCLC
HOP-62 NSCLC = test system: HOP-62 NSCLC
OVCAR-3 ovarian = test system: OVCAR-3 ovarian
IGROV1 ovarian = test system: IGROV1 ovarian
NCI-H522 lung = test system: NCI-H522 lung
A498 renal = test system: A498 renal
MDA-N = test system: MDA-N
786-0 renal = test system: 786-0 renal
RPMI-8226 leukemia = test system: RPMI-8226 leukemia
BT-549 breast = test system: BT-549 breast
HS 578T breast = test system: HS 578T breast

CC(=O)OCC1OC(n2c(-c3ccccc3)c(C)c(C)c(C#N)c2=S)C(OC(C)=O)C(OC(C)=O)C1OC(C)=O (configuration not stated)
GI50 (OVCAR-4 ovarian): 14.8 µM and 76.1 µM
TGI (OVCAR-4 ovarian): 34.1 µM and > 100 µM
TGI (OVCAR-5 ovarian): > 100 µM
TGI (MDA-MB-435): > 100 µM
GI50 (SNB-19 CNS): 17.9 µM and 44.9 µM
TGI (SNB-19 CNS): > 100 µM
GI50 (SN12C renal): 48.3 µM and > 100 µM
TGI (SN12C renal): > 100 µM
GI50 (SW-620 colon): 22.9 µM and > 100 µM
TGI (SW-620 colon): > 100 µM
GI50 (TK-10 renal): 48.6 µM and > 100 µM
TGI (TK-10 renal): > 100 µM
TGI (MDA-MB-231 breast): > 50 µM and 30.9 µM
TGI (MOLT-4 leukemia): > 100 µM
TGI (UACC-257 melanoma): > 100 µM
TGI (HT29 colon): > 100 µM
TGI (SK-MEL-5 melanoma): > 100 µM
TGI (SK-MEL-28 melanoma): > 100 µM
GI50 (M14 melanoma): 15.4 µM and 35 µM
TGI (M14 melanoma): > 100 µM
GI50 (SR leukemia): 32.3 µM and 95.3 µM
TGI (SR leukemia): > 100 µM
TGI (NCI-H460 lung): > 100 µM
TGI (T-47D breast): > 100 µM
TGI (SF-295 CNS): > 50 µM and 66.4 µM
GI50 (SF-268 CNS): 18.3 µM and 93.3 µM
TGI (SF-268 CNS): > 100 µM
TGI (NCI-H226 lung): > 100 µM
GI50 (K-562 leukemia): 24.8 µM and > 100 µM
TGI (K-562 leukemia): > 100 µM
TGI (CAKI-1 renal): > 50 µM
GI50 (LOX IMVI melanoma): 14.1 µM and > 100 µM
TGI (LOX IMVI melanoma): > 100 µM
GI50 (SK-MEL-2 melanoma): 35.5 µM and 14.6 µM
TGI (SK-MEL-2 melanoma): > 50 µM and 41.3 µM
GI50 (HOP-92 NSCLC): 21.1 nM
TGI (HOP-92 NSCLC): 24 µM
TGI (NCI/ADR-RES ovarian): > 100 µM
GI50 (SK-OV-3 ovarian): 13.2 µM and > 100 µM
TGI (SK-OV-3 ovarian): 48.8 µM and > 100 µM
GI50 (DU-145 prostate): 36.9 µM and > 100 µM
TGI (DU-145 prostate): > 100 µM
TGI (SNB-75 CNS): > 100 µM
GI50 (SF-539 CNS): 14.4 µM and > 100 µM
TGI (SF-539 CNS): 36.8 µM and > 100 µM
GI50 (UO-31 renal): > 50 µM and 12 µM
TGI (UO-31 renal): > 50 µM and 37.9 µM
TGI (MALME-3M melanoma): > 100 µM
GI50 (RXF 393 renal): 23.8 µM and 68.3 µM
TGI (RXF 393 renal): > 100 µM
GI50 (OVCAR-8 ovarian): 17.6 µM and > 100 µM
TGI (OVCAR-8 ovarian): > 100 µM
GI50 (CCRF-CEM leukemia): 49.2 µM and > 100 µM
TGI (CCRF-CEM leukemia): > 100 µM
TGI (MCF7 breast): > 100 µM
TGI (UACC-62 melanoma): > 50 µM and 43.5 µM
TGI (HCT-15 colon): > 100 µM
TGI (PC-3 prostate): > 100 µM
TGI (HL-60(TB) leukemia): > 100 µM
TGI (HCC-2998 colon): > 100 µM
TGI (KM12 colon): > 100 µM
GI50 (NCI-H23 lung): 32.9 µM and 16.3 µM
TGI (NCI-H23 lung): > 50 µM and 54.7 µM
TGI (COLO 205 colon): > 100 µM
TGI (U251 CNS): 34.6 µM
GI50 (ACHN renal): 26.8 µM and > 100 µM
TGI (ACHN renal): > 100 µM
GI50 (A549 NSCLC): 25.7 µM and > 100 µM
TGI (A549 NSCLC): > 100 µM
GI50 (HCT-116 colon): 11.4 µM and 40.1 µM
TGI (HCT-116 colon): 21.6 µM and > 100 µM
TGI (EKVX NSCLC): 46.9 µM and 77 µM
GI50 (HOP-62 NSCLC): 14.3 µM and > 100 µM
TGI (HOP-62 NSCLC): 40.4 µM and > 100 µM
TGI (OVCAR-3 ovarian): > 100 µM
TGI (IGROV1 ovarian): > 100 µM
TGI (NCI-H522 lung): > 100 µM
TGI (A498 renal): > 100 µM
TGI (MDA-N): > 50 µM and 56.6 µM
GI50 (786-0 renal): 6.84 µM and 23.2 µM
TGI (786-0 renal): 19.3 µM and 56.1 µM

CC(=O)Nc1sc2c(c1-c1nc3ccccc3s1)CNC2
GI50 (OVCAR-4 ovarian): 3.08 µM
TGI (OVCAR-4 ovarian): 24.8 µM
GI50 (OVCAR-5 ovarian): 3.05 µM
TGI (OVCAR-5 ovarian): 18 µM
GI50 (MDA-MB-435): 3.48 µM
TGI (MDA-MB-435): 12.5 µM
GI50 (SNB-19 CNS): 3.49 µM
TGI (SNB-19 CNS): 28.9 µM
GI50 (SN12C renal): 2.5 µM
TGI (SN12C renal): 15.5 µM
GI50 (SW-620 colon): 2.33 µM
TGI (SW-620 colon): 48.3 µM
GI50 (TK-10 renal): 4.74 µM
TGI (TK-10 renal): 24.4 µM
GI50 (MDA-MB-231 breast): 3.09 µM
TGI (MDA-MB-231 breast): 16.2 µM
GI50 (MOLT-4 leukemia): 2030 nM
TGI (MOLT-4 leukemia): 9.2 µM
GI50 (UACC-257 melanoma): 5.41 µM
TGI (UACC-257 melanoma): 14.8 µM
GI50 (HT29 colon): 3.76 µM
TGI (HT29 colon): 19.4 µM
GI50 (SK-MEL-5 melanoma): 5.23 µM
TGI (SK-MEL-5 melanoma): 11.2 µM
GI50 (SK-MEL-28 melanoma): 2940 nM
TGI (SK-MEL-28 melanoma): 9.93 µM
GI50 (M14 melanoma): 2.47 µM
TGI (M14 melanoma): 9.71 µM
GI50 (SR leukemia): 1.68 µM
TGI (SR leukemia): 12.6 µM
GI50 (NCI-H460 lung): 1940 nM
TGI (NCI-H460 lung): 10.2 µM
GI50 (T-47D breast): 2360 nM
TGI (T-47D breast): 22.3 µM
GI50 (SF-295 CNS): 2250 nM
TGI (SF-295 CNS): 9.93 µM
GI50 (SF-268 CNS): 2.94 µM
TGI (SF-268 CNS): 15 µM
GI50 (NCI-H226 lung): 3.27 µM
TGI (NCI-H226 lung): 16.7 µM
GI50 (K-562 leukemia): 2.23 µM
TGI (K-562 leukemia): 11.1 µM
GI50 (CAKI-1 renal): 2050 nM
TGI (CAKI-1 renal): > 50 µM
GI50 (RPMI-8226 leukemia): 3.57 µM
TGI (RPMI-8226 leukemia): 19.3 µM
GI50 (LOX IMVI melanoma): 1.67 µM
TGI (LOX IMVI melanoma): 6.74 µM
GI50 (SK-MEL-2 melanoma): 2.67 µM
TGI (SK-MEL-2 melanoma): 9.71 µM
GI50 (HOP-92 NSCLC): 4210 nM
TGI (HOP-92 NSCLC): 19.2 µM
GI50 (NCI/ADR-RES ovarian): 1970 nM
TGI (NCI/ADR-RES ovarian): 15.7 µM
GI50 (SK-OV-3 ovarian): 4.05 µM
TGI (SK-OV-3 ovarian): 39.2 µM
GI50 (DU-145 prostate): 2.93 µM
TGI (DU-145 prostate): > 50 µM
GI50 (SNB-75 CNS): 1810 nM
TGI (SNB-75 CNS): 9.52 µM
GI50 (SF-539 CNS): 2.17 µM
TGI (SF-539 CNS): 8.52 µM
GI50 (UO-31 renal): 0.648 µM
TGI (UO-31 renal): 11.4 µM
GI50 (MALME-3M melanoma): 2210 nM
TGI (MALME-3M melanoma): 8.75 µM
GI50 (RXF 393 renal): 2.25 µM
TGI (RXF 393 renal): 7.96 µM
GI50 (BT-549 breast): 6.83 µM
TGI (BT-549 breast): 14.7 µM
GI50 (OVCAR-8 ovarian): 2.45 µM
TGI (OVCAR-8 ovarian): > 50 µM
GI50 (CCRF-CEM leukemia): 3.74 µM
TGI (CCRF-CEM leukemia): 22.2 µM
GI50 (MCF7 breast): 865 nM
TGI (MCF7 breast): 7.88 µM
GI50 (UACC-62 melanoma): 2760 nM
TGI (UACC-62 melanoma): 11.7 µM
GI50 (HCT-15 colon): 1560 nM
TGI (HCT-15 colon): 8.89 µM
GI50 (PC-3 prostate): 3.37 µM
TGI (PC-3 prostate): 18.4 µM
GI50 (HL-60(TB) leukemia): 2840 nM
TGI (HL-60(TB) leukemia): 11.6 µM
GI50 (HCC-2998 colon): 2580 nM
TGI (HCC-2998 colon): 9.92 µM
GI50 (KM12 colon): 3.38 µM
TGI (KM12 colon): > 50 µM
GI50 (NCI-H23 lung): 2.44 µM
TGI (NCI-H23 lung): 11.8 µM
GI50 (COLO 205 colon): 1880 nM
TGI (COLO 205 colon): 9.73 µM
GI50 (U251 CNS): 4.06 µM
TGI (U251 CNS): 30.3 µM
GI50 (ACHN renal): 1.28 µM
TGI (ACHN renal): 7.56 µM
GI50 (HS 578T breast): 7.05 µM
TGI (HS 578T breast): 22.6 µM
GI50 (A549 NSCLC): 2.26 µM
TGI (A549 NSCLC): 25 µM
GI50 (HCT-116 colon): 1.99 µM
TGI (HCT-116 colon): 12.5 µM
GI50 (EKVX NSCLC): 2590 nM
TGI (EKVX NSCLC): 21.9 µM
GI50 (HOP-62 NSCLC): 2.38 µM
TGI (HOP-62 NSCLC): 15.8 µM
GI50 (OVCAR-3 ovarian): 3.85 µM
TGI (OVCAR-3 ovarian): 24.4 µM
GI50 (IGROV1 ovarian): 2070 nM
TGI (IGROV1 ovarian): 11.9 µM
GI50 (NCI-H522 lung): 2620 nM
TGI (NCI-H522 lung): 10.8 µM
GI50 (A498 renal): 7.4 µM
TGI (A498 renal): 14.9 µM
GI50 (786-0 renal): 2.61 µM
TGI (786-0 renal): 9.6 µM
